# Laboratory results published in patent US20170239212A1, “[…] AND USE THEREOF AS ANTIVIRAL AGENTS” (priority 2014, published 2017).
# Columns and labels:
# [1] = test system: LNCaP human prostate cancer cells; experiment: Proliferation and morphology of LNCaP cells (Incucyte confluency imaging); type: cell-based; conditions: for Persistence of early morphological change (cell flattening) in LNCaP cells: Incucyte images, 0-9 hrs after treatment
# Protocol: (§1) FIGS. 12A-12D show the effect of different compounds on the proliferation and apoptosis of LNCaP cells. […] Time-elapsed images were taken with an Incucyte imaging system every hour for 4 days. The proliferation of LNCaP cells is presented as increase in confluency (read by the instrument) at 80 hrs. Data represent the means±SEM of three independent experiments. […] Apoptosis was measured 2 days after treatment by flow cytometry using 7-AAD and Yo-Pro-1 as described in Materials and Methods. Data represent the means±SEM of three independent experiments.
# FIGS. 13A and 13B show the proliferation and morphology of LNCaP cells detected by Incucyte. LNCaP cells were treated with DMSO as control, 300 nM PMA, 1000 nM bryostatin 1 or the bryologue MERLE 21, or with 300 nM PMA in combination with 1000 nM bryostatin 1 or the bryologue MERLE 21. Time-elapsed images were taken by the Incucyte imaging system every hour. […] The arrow indicates the time of treatment. Data are representative of three independent experiments.
# The extent of confluency of LNCaP cells (from ATCC, Manassas, Va.) and the morphological changes after treatment were followed in real time using Incucyte (Essen Instruments, Ann Arbor, Mich.). Images of LNCaP cells plated into 24 well plates were taken every 1 hour by the instrument before and after treatment for a total of 4 days. The confluency of the cells was calculated by the instrument's program. The proliferation of LNCaP cells was expressed as the difference in cell confluency before and after treatment.
# [2] = test system: LNCaP human prostate cancer cells; experiment: Apoptosis of LNCaP cells (flow cytometry, Yo-Pro-1/7-AAD); type: cell-based; conditions: 48 hr; for Induction of apoptosis in LNCaP cells: compound alone
# Protocol: as §1
# (§2) LNCaP cells treated for 48 hours with the different drugs or with DMSO as control were washed and re-suspended in phosphate buffered saline. Yo-Pro-1 (Invitrogen, Carlsbad, Calif.) was added to a final concentration of 1 μM and the cells were incubated for 20 min at 4° C. in the dark. 7-Aminoactinomycin D (7-AAD) (Invitrogen, Carlsbad, Calif.) was then added at a 5 μg/mL final concentration 10 minutes before analysis by flow cytometry using the FACSCalibur system (Becton Dickinson, Mountain View, Calif.). Data were analyzed with FlowJo 7 (Tree Star Inc., Ashland, Oreg.). The Yo-Pro-1 positive cells were considered apoptotic and were expressed as % of total cells. Western blot analysis of treated LNCaP cell lysates was performed as described previously using rabbit anti-cFos, rabbit anti-PKC delta, rabbit anti-phospho-tyrosine 311 of PKC delta or rabbit anti-3-actin antibodies.
# [3] = test system: cFos; experiment: Induction of cFos in LNCaP cells (western blot); type: cell-based, human; conditions: 2, 5 or 8 hrs treatment
# Protocol: (§3) FIGS. 14A-14C show the induction of cFos and phosphorylation of PKC6 at Y311 in LNCaP cells. […] The proteins from the lysates were separated by 10% SDS-PAGE, electroblotted to nitrocellulose membranes and probed with anti-cFos primary and anti-rabbit secondary antibodies, followed by ECL visualization. Data are representative of four independent experiments. […] The cFos signal was normalized to the 3-actin signal to correct for loading and the response induced by 100 nM PMA at 2 hrs was taken as 100%. Data represent the means±SEM of four independent experiments. […] Data represent the means±SEM of three independent experiments.
# as §2, with “Western blot analysis of treated LNCaP cell lysates was performed as described previously using rabbit anti-cFos, rabbit anti-PKC delta, rabbit anti-phospho-tyrosine 311 of PKC delta or rabbit anti-3-actin antibodies.” left out
# [4] = test system: PKC delta; experiment: Phosphorylation of PKC delta at Y311 in LNCaP cells (western blot); type: cell-based, human; conditions: 2, 5 or 8 hrs treatment
# Protocol: as §3
# as §2, with “Western blot analysis of treated LNCaP cell lysates was performed as described previously using rabbit anti-cFos, rabbit anti-PKC delta, rabbit anti-phospho-tyrosine 311 of PKC delta or rabbit anti-3-actin antibodies.” left out
# [5] = test system: U937 cells; experiment: Inhibition of U937 cell proliferation; type: cell-based, human; conditions: for Block of PMA inhibition of U937 cell proliferation: 10 nM PMA with different concentrations of compound; for Inhibition of U937 cell proliferation (total cells as % of control): compound alone, 72 hours
# Protocol: U937 cells (Sundstrom, C.; Nilsson, K.: Establishment and characterization of a human histiocytic lymphoma cell line (U-937). Int. J. Cancer 1976, 17: 565-577), purchased from ATCC (Manassas, Va.) and cultured in RPMI-1640 medium supplemented with 10% FBS (ATCC, Manassas, Va.), were plated in 35 mm dishes at a density of 2×10^5 living cells/ml and treated with different concentrations of the drugs or DMSO. After 72 hours, the number of cells in the supernatant (non-attached cells) and the number of attached cells (after trypsinization) were counted using a Beckman particle counter (Beckman Coulter Inc., Fullerton, Calif.). The number of attached cells is expressed as percent of total cells (FIGS. 8-10).
# (§4) U937 cells were treated with PMA (0.1-100 nM), bryostatin 1 (1-1000 nM), the indicated compound (1-1000 nM), 10 nM PMA with different concentrations of bryostatin 1 (1-1000 nM) or 10 nM PMA with different concentrations of indicated compound (1-1000 nM). The number of attached and non-attached cells was counted and the number of total cells was expressed as % of control. The bars and error bars represent the average and the standard error of the mean of five independent experiments (FIGS. 8-10).
# (§5) U937 cells (Sundstrom and Nilsson, 1976), purchased from ATCC (Manassas, Va.) and cultured in RPMI-1640 medium supplemented with 10% FBS (ATCC, Manassas, Va.), were plated in 35 mm dishes at a density of 1×10^5 living cells/ml and treated with different concentrations of the drugs or DMSO. After 72 hours, the number of cells in the supernatant (non-attached cells) and the number of attached cells (after trypsinization) were counted using a particle counter. The number of attached cells is expressed as percent of total cells.
# U937 cells were treated with PMA (0.01-100 nM), bryostatin 1 (0.1-1000 nM), analogue 12 (MERLE 28) (0.1-1000 nM), 10 nM PMA with different concentrations of bryostatin 1 (0.1-1000 nM) or 10 nM PMA with different concentrations of analogue 12 (0.1-1000 nM). The numbers of attached and non-attached cells were counted and the number of total cells was expressed as % of control. The bars and error bars represent the average and the standard error of the mean of at least three independent experiments.
# as §5
# as §4, with “at least three” for “five”, “experiments.” for “experiments (FIGS. 8-10).”
SMILES,"Block of PMA inhibition of LNCaP cell growth ([1]; 300 nM PMA combined with 1000 nM compound, 80 hrs)",Persistence of early morphological change (cell flattening) in LNCaP cells [1],"Effect on LNCaP cell growth ([1]; compound alone, confluency at 80 hrs)",Block of PMA-induced apoptosis in LNCaP cells ([2]; 300 nM PMA combined with 1000 nM compound),Induction of apoptosis in LNCaP cells [2],Time course of cFos induction in LNCaP cells [3],Phosphorylation of PKC delta at Y311 in LNCaP cells [4],Block of PMA inhibition of U937 cell proliferation [5],Block of PMA inhibition of U937 cell proliferation ([5]; listed as bryostatin 1),Inhibition of U937 cell proliferation (total cells as % of control) [5],Inhibition of U937 cell proliferation (total cells as % of control) ([5]; listed as bryostatin 1)
CCC/C=C/C=C/C(=O)O[C@H]1/C(=C/C(=O)OC)C[C@H]2C[C@H]([C@@H](C)O)OC(=O)C[C@H](O)C[C@@H]3C[C@H](OC(C)=O)C(C)(C)[C@](O)(C[C@@H]4C/C(=C/C(=O)OC)C[C@H](/C=C/C(C)(C)[C@]1(O)O2)O4)O3 [Bryostatin 1],blocked the inhibition of LNCaP cell growth by PMA,had reversed by 6 hrs after treatment,induced a low level of inhibition of cell growth,largely blocked the induction of apoptosis by PMA,had little effect,largely lost by 5 hrs,only very weak phosphorylation,blocks the effect of the phorbol ester,able to block the effect of PMA in a dose dependent manner,has much less effect on either response,not strongly antiproliferative
"CCCCCCCCCCCCCC(=O)O[C@@H]1[C@@H](C)[C@@]2(O)[C@@H](C=C(CO)C[C@]3(O)C(=O)C(C)=C[C@@H]23)[C@@H]2C(C)(C)[C@]12OC(C)=O [PMA, phorbol 12-myristate 13-acetate]",,still evident at 6 hrs but reversing by 9 hrs,,,induced apoptosis,"persisted for 5 hrs, with weak induction still evident at 8 hrs",rapid phosphorylation,,,inhibits cell proliferation,
